Data reported in ChEMBL document CHEMBL3243942, “Nondepressant beta-adrenergic blocking agents. 1. Substituted 3-amino-1-(5,6,7,8-tetrahydro-1-naphthoxy)-2-propanols” (J Med Chem, 1978).
≈ marks a conversion by molar mass, not a printed value. Calls of active or inactive are those of the source. The rule behind the calls is not given here.

What was measured:
[1] = Inhibition of beta-adrenergic receptor in isoproterenol-stimulated guinea pig atrial muscle; assay type: tissue-based, Cavia porcellus, Cardiac atrium
[2] = Myocardial depressant activity in guinea pig atrial muscle assessed as maximal non-depressant dose by measuring contractility; assay type: ADME, tissue-based, Cavia porcellus, Muscle tissue
[3] = biological target: Adrenergic receptor beta (Rattus norvegicus, UniProt P18090+P10608+P26255); test: Inhibition of beta-adrenergic receptor in rat portal vein
[4] = Retention time of the compound; assay type: physicochemical
[5] = species on record: Felis catus; test: Inhibition of beta-adrenergic receptor in cat papillary muscle; assay type: tissue-based
[6] = Myocardial depressant activity in cat papillary muscle assessed as decrease in contractile force at >0.31 mg/ml; assay type: ADME, tissue-based, Felis catus, Muscle tissue
[7] = Myocardial depressant activity in guinea pig atrial muscle assessed as decrease in contractility at 0.31 x 10^-3 to 0.31 mg/ml; assay type: ADME, tissue-based, Cavia porcellus, Muscle tissue
[8] = Myocardial depressant activity in guinea pig atrial muscle assessed as decrease in contractility at 1.0 mg/ml; assay type: ADME, tissue-based, Cavia porcellus, Muscle tissue

Row | IC50 [1] | Activity [2] [µg/mL] | Compound | other results
1 |  | > 1000 | CCN(CC(O)COc1cccc2c1C[C@H](O)[C@H](O)C2)C(C)(C)C (stereo not given in full) | 
2 |  | 1 | CC(C)(C)CC(C)(C)NCC(O)COc1cccc2c1C[C@H](O)[C@H](O)C2 (stereo not given in full) | IC50 [3]: 0.78 µg/mL (≈ 2.13 µM)
3 | 0.1 µg/mL (≈ 0.339 µM) | > 1000 | CC(C)NCC(O)COc1cccc2c1C[C@@H](O)[C@@H](O)C2 (relative stereo) | 
4 | 3.8 µg/mL | > 1000 | Cl.NCC(O)COc1cccc2c1C[C@H](O)[C@H](O)C2 (stereo not given in full) | 
5 | 16 µg/mL (≈ 49.5 µM) | 31 | CC(O)(CNC(C)(C)C)COc1cccc2c1C[C@H](O)[C@H](O)C2 (stereo not given in full) | 
6 | 0.03 µg/mL (≈ 0.097 µM) | > 1000 | CC(C)(C)NCC(O)COc1cccc2c1C[C@@H](O)[C@@H](O)C2 (relative stereo) | 
7 | 0.05 µg/mL (≈ 0.169 µM) | > 1000 | CC(C)NCC(O)COc1cccc2c1C[C@H](O)[C@@H](O)C2 (relative stereo) | 
8 | 0.0025 µg/mL (≈ 0.00852 µM) | 1 | CC(C)(C)NCC(O)COc1cccc2c1CC(O)CC2 (stereo not given) | 
9 | 0.086 µg/mL |  | CC(C)(C)NCC(O)COc1ccc(O)c2c1C[C@@H](O)[C@@H](O)C2.Cl (relative stereo) | inhibition (INH) [7]: 10%; Activity [8]: Non-toxic
10 |  | 3.1 | CC(C)(Cc1ccccc1)NCC(O)COc1cccc2c1C[C@H](O)[C@H](O)C2 (stereo not given in full) | IC50 [3]: 0.045 µg/mL (≈ 0.117 µM)
11 | 31 µg/mL (≈ 100 µM) | > 1000 | CCN(CC)CC(O)COc1cccc2c1C[C@H](O)[C@H](O)C2 (stereo not given in full) | 
12 | 0.63 µg/mL | 1000 | CC(C)(C)[N+](C)(C)CC(O)COc1cccc2c1C[C@H](O)[C@H](O)C2.[I-] (stereo not given in full) | 
13 | 0.001 µg/mL (≈ 0.00341 µM) | 10 | CC(C)(C)NCC(O)COc1cccc2c1CCC(O)C2 (stereo not given) | 
14 | Not Active | > 1000 | CN(CC(O)COc1cccc2c1C[C@H](O)[C@H](O)C2)C(C)(C)C (stereo not given in full) | 
15 | 0.015 µg/mL (≈ 0.0485 µM) | > 1000 | CC(C)(C)NCC(O)COc1cccc2c1C[C@H](O)[C@@H](O)C2 (relative stereo) | 

Second part, the compound before the results:

Row | Compound | IC50 [1] | Activity [2] [µg/mL] | other results
16 | CC(C)(C)NCC(O)COc1ccc2c(c1)C[C@@H](O)[C@H](O)C2 (relative stereo) | 6 µg/mL (≈ 19.4 µM) | 100 | 
17 | CO[C@H]1Cc2cccc(OCC(O)CNC(C)(C)C)c2C[C@H]1OC.Cl (relative stereo) |  | 100 | IC50 [3]: 0.051 µg/mL
18 | CCOc1ccccc1OCCNCC(O)COc1cccc2c1C[C@H](O)[C@H](O)C2 (stereo not given in full) | 0.31 µg/mL (≈ 0.743 µM) | 31 | 
19 | CC(C)N(Cc1ccccc1)CC(O)COc1cccc2c1C[C@H](O)[C@H](O)C2 (stereo not given in full) | 80 µg/mL (≈ 208 µM) | 310 | 
20 | COc1ccc(CCNCC(O)COc2cccc3c2C[C@H](O)[C@H](O)C3)cc1OC (stereo not given in full) | 0.07 µg/mL (≈ 0.168 µM) | > 1000 | 
21 | Oc1cccc2c1CCC=C2 |  |  | Retention_time [4]: 37 min
22 | CC(C)NCC(O)COc1cc(O)c(O)c2c1CCCC2 (stereo not given) | 0.11 µg/mL (≈ 0.372 µM) | 100 | 
23 | CC(C)(C)NCC(O)COc1cccc2c1CC[C@@H](O)[C@@H]2O (relative stereo) | 0.02 µg/mL (≈ 0.0646 µM) | 310 | 
24 | CC(C)(C)N(CCNCC(O)COc1cccc2c1C[C@H](O)[C@H](O)C2)Cc1ccccc1 (stereo not given in full) |  | 31 | IC50 [3]: > 8 µg/mL
25 | Oc1cccc2c1C=CCC2 |  |  | Retention_time [4]: 35 min
26 | Cl.NCC(O)COc1ccc(O)c2c1CCCC2 (stereo not given) | 0.15 µg/mL | 31 | 
27 | CC(C)NCC(O)COc1cccc2c1CCC(=O)C2 (stereo not given) | 0.006 µg/mL (≈ 0.0216 µM) | 3.1 | 
28 | CC(C)(C)NCC(O)COc1ccc(I)c2c1C[C@H](O)[C@H](O)C2 (relative stereo) |  |  | inhibition [5]: Active; Activity [6]: Toxic
29 | CC(C)(C)NCC(O)COc1cc(O)c(O)c2c1CCCC2 (stereo not given) | 0.1 µg/mL (≈ 0.323 µM) | 10 | 
30 | CC(C)(C)NCC(O)COc1cccc2c1CC=CC2 (stereo not given) |  | 0.3 | IC50 [3]: 0.0013 µg/mL (≈ 0.00472 µM)
31 | CC(C)NCC(O)COc1ccc(O)c2c1CCCC2 (stereo not given) | 0.004 µg/mL (≈ 0.0143 µM) | 10 | 
32 | COc1ccccc1N1CCN(CC(O)COc2cccc3c2C[C@H](O)[C@H](O)C3)CC1 (stereo not given in full) |  |  | IC50 [3]: 0.46 µg/mL (≈ 1.07 µM)
33 | Oc1cccc2c1CCCC2 |  |  | Retention_time [4]: 37.5 min
34 | CC(C)NCC(O)COc1cccc2ccccc12 (stereo not given) [PROPRANOLOL] |  | 0.31 | 

Row | Compound | IC50 [1] | Activity [2] [µg/mL] | other results
35 | CC(C)NCC(O)COc1cccc2c1CCC(O)C2.O=C(O)C(=O)O (stereo not given) | 0.002 µg/mL | 31 | 
36 | COc1ccc(CCNCC(O)COc2ccc(O)c3c2CCCC3)cc1OC (stereo not given) | 0.024 µg/mL (≈ 0.0598 µM) | 3.1 | 
37 | OC(CNCCc1ccccc1)COc1cccc2c1C[C@H](O)[C@H](O)C2 (stereo not given in full) | 0.5 µg/mL (≈ 1.4 µM) | 100 | 
38 | CO[C@@H]1c2c(cccc2OCC(O)CNC(C)C)CC[C@@H]1O.O=C(O)C(=O)O (relative stereo) | 0.8 µg/mL | 10 | 
39 | OC(CNCc1ccccc1)COc1cccc2c1C[C@H](O)[C@H](O)C2 (stereo not given in full) | 1 µg/mL (≈ 2.91 µM) | 100 | 
40 | CC(C)NCC(O)COc1cccc2c1CCCC2 (stereo not given) | 0.01 µg/mL (≈ 0.038 µM) | 1 | 
41 | C=CCc1ccc(OCCNCC(O)COc2cccc3c2C[C@H](O)[C@H](O)C3)c(OC)c1 (stereo not given in full) |  | 3.1 | IC50 [3]: 1.5 µg/mL (≈ 3.38 µM)
42 | COc1ccc(CCNCC(O)COc2cc(O)c(O)c3c2CCCC3)cc1OC.Cl (stereo not given) | 5.9 µg/mL | 3.1 | 
43 | CC(C)NCC(O)COc1cccc2c1CC(O)CC2 (stereo not given) | 0.005 µg/mL (≈ 0.0179 µM) | 3.1 | 
44 | CC(C)(C)NCC(O)COc1ccc(O)c2c1C[C@@H]1OCO[C@@H]1C2 (stereo not given in full) | 0.3 µg/mL (≈ 0.889 µM) | 100 | 
45 | CC(C)(C)NCC(O)COc1cccc2c1CCCC2=O (stereo not given) [BUNOLOL] | 0.006 µg/mL (≈ 0.0206 µM) | 1 | 
46 | CO[C@@H]1c2cccc(OCC(O)CNC(C)C)c2CC[C@H]1O.O=C(O)C(=O)O (relative stereo) | 0.05 µg/mL | 31 | 
47 | CC(C)(C)NCC(O)COc1ccc2c(c1)C[C@@H](O)[C@@H](O)C2 (relative stereo) | 10 µg/mL (≈ 32.3 µM) | > 1000 | 
48 | CCCCNCC(O)COc1cccc2c1C[C@H](O)[C@H](O)C2 (stereo not given in full) |  |  | IC50 [3]: 0.44 µg/mL (≈ 1.42 µM)
49 | OC(COc1cccc2c1C[C@H](O)[C@H](O)C2)CN1CCN(c2ccccn2)CC1 (stereo not given in full) | Not Active | > 310 | 
50 | CC(C)(C)NCC(O)COc1cccc2c1C[C@@H]1OCO[C@@H]1C2 (relative stereo) | 0.04 µg/mL (≈ 0.124 µM) | 3.1 | 
51 | CC(C)NCC(O)COc1cccc2c1CC1OC1C2 (stereo not given) | 0.012 µg/mL (≈ 0.0433 µM) | 31 | 
52 | CC(C)NCC(O)COc1cccc2c1CC=CC2 (stereo not given) | 0.001 µg/mL (≈ 0.00383 µM) | 1 | 
53 | CC(C)(C)NCC(O)COc1ccc(O)c2c1CCCC2 (stereo not given) | 0.01 µg/mL (≈ 0.0341 µM) | 10 | 
